US6569904B1, “Agent for lowering endothelin levels” (Orion Corporation, priority 1998, dated 2003)

Tests used:
Type in all cases: in vivo, postmenopausal breast cancer patients
nitrite/nitrate (NOx) = experiment: Plasma nitrite/nitrate (NOx) level in patients treated orally for one year; settings: mean±SE; for Plasma level of nitrite/nitrate, at 6 months: at 6 months of oral treatment; for Plasma level of nitrite/nitrate, at 12 months: at 12 months of oral treatment; for Plasma level of nitrite/nitrate, before treatment: baseline before treatment, breast cancer patients
Experimental: (§1) Postmenopausal breast cancer patients were treated with 40 mg/d toremifene (Fareston™) (n=19), 20 mg/d tamoxifen (Tadex™) (n=25) or 2 mg/d estradiol valerate (Progynova™)(n=14) orally for one year. The 44 patients of the antiestrogen groups had been operated on breast cancer 6-8 weeks before the trial. Plasma samples (10 ml) were collected before and at 6 and 12 months of each regimen, and plasma levels of endothelin-1 (ET-1) and nitrite/nitrate (NOx) were measured by established methods. The data (presented as mean±SE) were analyzed by two-way analysis of variance (ANOVA) for repeated measures. When differences were indicated by ANOVA, their significances at individual timepoints were calculated by means of a t-test for independent means (between-groups comparison) or a t-test for dependent means (comparison to baseline within a single group). For determination of correlation between two variables, the Pearsson coefficient was calculated.

endothelin-1 (ET-1) = experiment: Effect on endothelin-1 level in plasma of patients treated orally for one year; settings: for Plasma level of endothelin-1, at 6 months: at 6 months of oral treatment (toremifene 40 mg/d, tamoxifen 20 mg/d, estradiol valerate 2 mg/d); for Plasma level of endothelin-1, at 6 months / Plasma level of endothelin-1, at 12 months / Plasma level of endothelin-1, before treatment: mean±SE; for Plasma level of endothelin-1, at 12 months: at 12 months of oral treatment (toremifene 40 mg/d, tamoxifen 20 mg/d, estradiol valerate 2 mg/d); for Plasma level of endothelin-1, before treatment: baseline before treatment, breast cancer patients; for Effect on endothelin-1 level in patients during the treatment (in words): oral treatment for one year
Experimental: Effect of toremifene on endothelin-1 level in plasma
as §1

[1] = Occurrence of thromboses and cerebrovascular accidents in three clinical adjuvant trials; settings: for Cerebrovascular accidents (number of occurrences) / Deep vein thromboses (number of occurrences): oral toremifene 40 mg/d (1120 patients) vs oral tamoxifen 20 mg/day (1110 patients) for 3 years, serious events
Experimental: Occurrence of thromboses and cerebrovascular accidents
In three clinical adjuvant trials effects of oral toremifene 40 mg/d was compared to oral tamoxifen 20 mg/day for 3 years in postmenopausal breast cancer patients. The occurrence of serious deep vein thromboses and serious cerebrovascular accidents in toremifen and tamoxifen groups are summarized in Table 2.

Compound	Plasma level of nitrite/nitrate, at 6 months (nitrite/nitrate (NOx)) [µmol/L]	Plasma level of nitrite/nitrate, at 12 months (nitrite/nitrate (NOx)) [µmol/L]	Plasma level of nitrite/nitrate, before treatment (nitrite/nitrate (NOx)) [µmol/L]	Plasma level of endothelin-1, at 6 months (endothelin-1 (ET-1)) [ng/L]	Plasma level of endothelin-1, at 12 months (endothelin-1 (ET-1)) [ng/L]	Plasma level of endothelin-1, before treatment (endothelin-1 (ET-1)) [ng/L]	Effect on endothelin-1 level in patients during the treatment (in words) (endothelin-1 (ET-1))	Cerebrovascular accidents (number of occurrences) [1]	Deep vein thromboses (number of occurrences) [1]	Vascular complications (deep vein thrombosis and cerebrovascular events), comparison in words ([1]; tamoxifen treated patients compared with toremifene treated patients)
CCCCC(=O)O[C@H]1CC[C@H]2[C@@H]3CCc4cc(O)ccc4[C@H]3CC[C@]12C [Estrogen, estradiol valerate]	21.5 ± 3.2	18.5 ± 2.7	25.8 ± 3.7	2.7 ± 0.2	2.7 ± 0.2	2.8 ± 0.2	–	–	–	–
CC/C(=C(\c1ccccc1)c1ccc(OCCN(C)C)cc1)c1ccccc1 [Tamoxifen, tamoxifen]	22.8 ± 4.0	20.4 ± 2.5	20.6 ± 2.3	3.5 ± 0.2	3.2 ± 0.2	3.5 ± 0.2	no effect	14	13	clearly more vascular complications
CN(C)CCOc1ccc(/C(=C(/CCCl)c2ccccc2)c2ccccc2)cc1 [Toremifene, toremifene]	21.0 ± 2.5	21.6 ± 3.1	23.4 ± 4.0	2.6 ± 0.2	2.6 ± 0.2	3.0 ± 0.2	significantly lowered endothelin-1 level	2	7	–
